The record followed here is patent US11572399B2, “Long-acting GIP peptide analogues” (University of Copenhagen, priority 2017, dated 2023).

In test [1] the target is T1, human GIP receptor (Homo sapiens, UniProt P48546).
T1 construct: host or cells: COS-7, transient transfection (calcium phosphate), cDNA in pCMV-Script
T1 sequence (P48546 22-466): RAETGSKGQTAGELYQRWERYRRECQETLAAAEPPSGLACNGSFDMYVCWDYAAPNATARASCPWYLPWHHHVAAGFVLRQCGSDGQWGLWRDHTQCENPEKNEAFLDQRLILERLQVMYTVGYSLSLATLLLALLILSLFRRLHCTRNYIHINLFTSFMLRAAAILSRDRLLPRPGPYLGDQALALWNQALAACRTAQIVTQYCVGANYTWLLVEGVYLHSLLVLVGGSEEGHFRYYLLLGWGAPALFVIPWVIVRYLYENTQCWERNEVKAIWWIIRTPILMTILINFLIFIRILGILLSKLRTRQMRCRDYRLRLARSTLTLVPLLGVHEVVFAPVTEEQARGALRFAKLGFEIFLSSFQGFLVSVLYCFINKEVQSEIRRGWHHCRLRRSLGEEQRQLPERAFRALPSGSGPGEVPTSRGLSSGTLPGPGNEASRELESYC
As to the kind of experiment: cAMP accumulation assay, antagonism of a GIP-mediated cAMP response (50-80% of max). Format: cell-based. The method, then: The day after, the cells were washed twice with Hepes buffered saline (HBS) buffer and incubated with HBS and 1 mM 3-isobutyl-1-methylxanthine (IBMX) for 30 min at 37° C. […] The HitHunter™ cAMP XS assay (DiscoveRx) was carried out according to the manufacturer's instructions.
For orientation: Changes in cAMP serve as a functional read-out for many G protein-coupled receptors.

The target in test [2] is T1, human GIP receptor. As to the kind of experiment: cAMP accumulation assay, agonism (ligand alone). Format: cell-based. Particulars: COS-7 cells, Table 1; for Emax: COS-7, intrinsic cAMP activity; for cAMP agonism Emax: intrinsic cAMP activity.
For test [3], the target named is T1, human GIP receptor. As to the kind of experiment: 125I-human GIP competition binding assay, in the presence and absence of 2% HSA.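 Further: nonspecific binding taken as radioligand bound to untransfected cells, IC50 obtained from nonlinear regression fits.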 As to conditions: fold change +HSA/−HSA.
Setting [4] is: transiently transfected COS-7 cells, Table 1 and text, read-out: cAMP antagonism nM (IC50, antagonistic potency).

Read-outs that look alike come from different tables or passages of the source. Side chains are listed from the residue outwards. Peptide text beside a SMILES is read from it. * marks the point of attachment. C16 diacid = O=C(O)CCCCCCCCCCCCCCC(=O)*; Stearoyl = CCCCCCCCCCCCCCCCCC(=O)*; Palmitoyl = CCCCCCCCCCCCCCCC(=O)*; GABA = NCCCC(=O)O

Usually IC50 stands for the concentration at which inhibition is half-maximal. By Emax is commonly meant the maximal effect, on the per cent scale that the assay sets. In the case of `CC[C@H](C)[C@H](NC(=O)[C@H](CO)NC(=O)[C@H](Cc1ccc(O)cc1)NC(=O)[C@H](CC(=O)O)NC(=O)[C@H](CO)NC(=O)[C@@H](NC(=O)[C@H](Cc1ccccc1)NC(=O)[C@@H](NC(=O)CNC(=O)[C@@H](N)CCC(=O)O)[C@@H](C)O)[C@@H](C)CC)C(=O)N[C@@H](C)C(=O)N[C@@H](CCSC)C(=O)N[C@@H](CC(=O)O)C(=O)N[C@@H](CCCCN)C(=O)N[C@H](C(=O)N[C@@H](Cc1c[nH]cn1)C(=O)N[C@@H](CCC(N)=O)C(=O)N[C@@H](CCC(N)=O)C(=O)N[C@@H](CCCCNC(=O)CCCCCCCCCCCCCCC(=O)O)C(=O)N[C@@H](Cc1ccccc1)C(=O)N[C@H](C(=O)N[C@@H](CC(N)=O)C(=O)N[C@@H](Cc1c[nH]c2ccccc12)C(=O)N[C@@H](CC(C)C)C(=O)N[C@@H](CC(C)C)C(=O)N[C@@H](C)C(=O)N[C@@H](CCC(N)=O)C(=O)N[C@@H](CCCCN)C(N)=O)C(C)C)[C@@H](C)CC` [AT310, [hGIP(3-30)NH2[D21K]-C16diacid/21]] (H-EGTFISDYSIAMDKIHQQK(C16 diacid)FVNWLLAQK-NH2; N-terminus assumed), the IC50 on human GIP receptor [1] (setting [4]) came to 49 nM. Besides, the Emax at human GIP receptor [2] came to 6.2%.
On to `CC[C@H](C)[C@H](NC(=O)[C@H](CO)NC(=O)[C@H](Cc1ccc(O)cc1)NC(=O)[C@H](CC(=O)O)NC(=O)[C@H](CO)NC(=O)[C@H](CCCCNC(=O)CCCCCCCCCCCCCCC(=O)O)NC(=O)[C@H](Cc1ccccc1)NC(=O)[C@@H](NC(=O)CNC(=O)[C@@H](N)CCC(=O)O)[C@@H](C)O)C(=O)N[C@@H](C)C(=O)N[C@@H](CCSC)C(=O)N[C@@H](CC(=O)O)C(=O)N[C@@H](CCCCN)C(=O)N[C@H](C(=O)N[C@@H](Cc1c[nH]cn1)C(=O)N[C@@H](CCC(N)=O)C(=O)N[C@@H](CCC(N)=O)C(=O)N[C@@H](CC(=O)O)C(=O)N[C@@H](Cc1ccccc1)C(=O)N[C@H](C(=O)N[C@@H](CC(N)=O)C(=O)N[C@@H](Cc1c[nH]c2ccccc12)C(=O)N[C@@H](CC(C)C)C(=O)N[C@@H](CC(C)C)C(=O)N[C@@H](C)C(=O)N[C@@H](CCC(N)=O)C(=O)N[C@@H](CCCCN)C(N)=O)C(C)C)[C@@H](C)CC` [AT298, [hGIP(3-30)NH2[I7K]-C16diacid/7]], for which the IC50 on human GIP receptor [1] (setting [4]) amounted to 33 nM. At human GIP receptor [2], the “cAMP agonism Emax” value was “no ag”.
In the same order, the values of `CC[C@H](C)[C@H](NC(=O)[C@H](CO)NC(=O)[C@H](Cc1ccc(O)cc1)NC(=O)[C@H](CCCCNC(=O)CCCCCCCCCCCCCCC(=O)O)NC(=O)[C@H](CO)NC(=O)[C@@H](NC(=O)[C@H](Cc1ccccc1)NC(=O)[C@@H](NC(=O)CNC(=O)[C@@H](N)CCC(=O)O)[C@@H](C)O)[C@@H](C)CC)C(=O)N[C@@H](C)C(=O)N[C@@H](CCSC)C(=O)N[C@@H](CC(=O)O)C(=O)N[C@@H](CCCCN)C(=O)N[C@H](C(=O)N[C@@H](Cc1c[nH]cn1)C(=O)N[C@@H](CCC(N)=O)C(=O)N[C@@H](CCC(N)=O)C(=O)N[C@@H](CC(=O)O)C(=O)N[C@@H](Cc1ccccc1)C(=O)N[C@H](C(=O)N[C@@H](CC(N)=O)C(=O)N[C@@H](Cc1c[nH]c2ccccc12)C(=O)N[C@@H](CC(C)C)C(=O)N[C@@H](CC(C)C)C(=O)N[C@@H](C)C(=O)N[C@@H](CCC(N)=O)C(=O)N[C@@H](CCCCN)C(N)=O)C(C)C)[C@@H](C)CC` [AT300, [hGIP(3-30)NH2[D9K]-C16diacid/9]] (H-EGTFISK(C16 diacid)YSIAMDKIHQQDFVNWLLAQK-NH2; N-terminus assumed) are 22 nM and “no ag”.
A word on the EC50: it is the concentration needed to bring the measured effect to its halfway point. `CCCCCCCCCCCCCCCC(=O)NCCCC[C@H](NC(=O)[C@@H](NC(=O)[C@H](CCCCN)NC(=O)[C@H](CC(=O)O)NC(=O)[C@H](CCSC)NC(=O)[C@H](C)NC(=O)[C@@H](NC(=O)[C@H](CO)NC(=O)[C@H](Cc1ccc(O)cc1)NC(=O)[C@H](CC(=O)O)NC(=O)[C@H](CO)NC(=O)[C@@H](NC(=O)[C@H](Cc1ccccc1)NC(=O)[C@@H](N)[C@@H](C)O)[C@@H](C)CC)[C@@H](C)CC)[C@@H](C)CC)C(=O)N[C@@H](CCC(N)=O)C(=O)N[C@@H](CCC(N)=O)C(=O)N[C@@H](CC(=O)O)C(=O)N[C@@H](Cc1ccccc1)C(=O)N[C@H](C(=O)N[C@@H](CC(N)=O)C(=O)N[C@@H](Cc1c[nH]c2ccccc12)C(=O)N[C@@H](CC(C)C)C(=O)N[C@@H](CC(C)C)C(=O)N[C@@H](C)C(=O)N[C@@H](CCC(N)=O)C(=O)N[C@@H](CCCCN)C(N)=O)C(C)C` [AT145, [hGIP(5-30)NH2[H18K]-C16/18]] (H-TFISDYSIAMDKIK(Palmitoyl)QQDFVNWLLAQK-NH2; N-terminus assumed): the concentration for half-maximal inhibition (IC50) at human GIP receptor [1] (setting [4]) was 66 nM. Also, the Emax at human GIP receptor [2] came out at 16%. Also, on human GIP receptor [2] (read-out: cAMP agonism nM (EC50)), the EC50 was 33 nM.
With `CC[C@H](C)[C@H](NC(=O)[C@H](CO)NC(=O)[C@H](Cc1ccc(O)cc1)NC(=O)[C@H](CC(=O)O)NC(=O)[C@H](CO)NC(=O)[C@@H](NC(=O)[C@H](Cc1ccccc1)NC(=O)[C@@H](N)[C@@H](C)O)[C@@H](C)CC)C(=O)N[C@@H](C)C(=O)N[C@@H](CCSC)C(=O)N[C@@H](CC(=O)O)C(=O)N[C@@H](CCCCN)C(=O)N[C@H](C(=O)N[C@@H](Cc1c[nH]cn1)C(=O)N[C@@H](CCC(N)=O)C(=O)N[C@@H](CCC(N)=O)C(=O)N[C@@H](CC(=O)O)C(=O)N[C@@H](Cc1ccccc1)C(=O)N[C@H](C(=O)N[C@@H](CC(N)=O)C(=O)N[C@@H](Cc1c[nH]c2ccccc12)C(=O)N[C@@H](CC(C)C)C(=O)N[C@@H](CC(C)C)C(=O)N[C@@H](C)C(=O)N[C@@H](CCC(N)=O)C(=O)N[C@@H](CCCCN)C(N)=O)C(C)C)[C@@H](C)CC` [hGIP(5-30)NH2, reference compound], the IC50 against human GIP receptor [1] (cAMP accumulation IC50 (nM), antagonism of GIP-mediated cAMP response, COS-7 cells) was 27.5 nM; on human GIP receptor [1] (cAMP antagonism nM (IC50, antagonistic potency), transiently transfected COS-7 cells, Table 1 and text), 28 nM. For the same molecule, the “Binding (+/−HSA) Fold” value on human GIP receptor [3] worked out at 1.0.
`CCCCCCCCCCCCCCCCCC(=O)NCCCC[C@H](NC(=O)[C@H](CC(=O)O)NC(=O)[C@H](CCSC)NC(=O)[C@H](C)NC(=O)[C@@H](NC(=O)[C@H](CO)NC(=O)[C@H](Cc1ccc(O)cc1)NC(=O)[C@H](CC(=O)O)NC(=O)[C@H](CO)NC(=O)[C@@H](NC(=O)[C@H](Cc1ccccc1)NC(=O)[C@@H](N)[C@@H](C)O)[C@@H](C)CC)[C@@H](C)CC)C(=O)N[C@H](C(=O)N[C@@H](Cc1c[nH]cn1)C(=O)N[C@@H](CCC(N)=O)C(=O)N[C@@H](CCC(N)=O)C(=O)N[C@@H](CC(=O)O)C(=O)N[C@@H](Cc1ccccc1)C(=O)N[C@H](C(=O)N[C@@H](CC(N)=O)C(=O)N[C@@H](Cc1c[nH]c2ccccc12)C(=O)N[C@@H](CC(C)C)C(=O)N[C@@H](CC(C)C)C(=O)N[C@@H](C)C(=O)N[C@@H](CCC(N)=O)C(=O)N[C@@H](CCCCN)C(N)=O)C(C)C)[C@@H](C)CC` [AT128, [hGIP(5-30)NH2—C18/16]]: on human GIP receptor [1] (setting [4]), the IC50 stood at 114 nM. On human GIP receptor [2], this molecule had an Emax of 25%.
In the same order, the values of `CCCCCCCCCCCCCCCCCC(=O)NCCCC[C@H](NC(=O)[C@@H](NC(=O)[C@H](CCCCN)NC(=O)[C@H](CC(=O)O)NC(=O)[C@H](CCSC)NC(=O)[C@H](C)NC(=O)[C@@H](NC(=O)[C@H](CO)NC(=O)[C@H](Cc1ccc(O)cc1)NC(=O)[C@H](CC(=O)O)NC(=O)[C@H](CO)NC(=O)[C@@H](NC(=O)[C@H](Cc1ccccc1)NC(=O)[C@@H](N)[C@@H](C)O)[C@@H](C)CC)[C@@H](C)CC)[C@@H](C)CC)C(=O)N[C@@H](CCC(N)=O)C(=O)N[C@@H](CCC(N)=O)C(=O)N[C@@H](CC(=O)O)C(=O)N[C@@H](Cc1ccccc1)C(=O)N[C@H](C(=O)N[C@@H](CC(N)=O)C(=O)N[C@@H](Cc1c[nH]c2ccccc12)C(=O)N[C@@H](CC(C)C)C(=O)N[C@@H](CC(C)C)C(=O)N[C@@H](C)C(=O)N[C@@H](CCC(N)=O)C(=O)N[C@@H](CCCCN)C(N)=O)C(C)C` [AT161, [hGIP(5-30)NH2[H18K]-C18/18]] (H-TFISDYSIAMDKIK(Stearoyl)QQDFVNWLLAQK-NH2; N-terminus assumed) are 252 nM and 7%.
For the molecule `CCCCCCCCCCCCCCCC(=O)NCCCC(=O)NCCCC[C@H](NC(=O)[C@@H](NC(=O)[C@H](CCCCN)NC(=O)[C@H](CC(=O)O)NC(=O)[C@H](CCSC)NC(=O)[C@H](C)NC(=O)[C@@H](NC(=O)[C@H](CO)NC(=O)[C@H](Cc1ccc(O)cc1)NC(=O)[C@H](CC(=O)O)NC(=O)[C@H](CO)NC(=O)[C@@H](NC(=O)[C@H](Cc1ccccc1)NC(=O)[C@@H](NC(=O)CNC(=O)[C@@H](N)CCC(=O)O)[C@@H](C)O)[C@@H](C)CC)[C@@H](C)CC)[C@@H](C)CC)C(=O)N[C@@H](CCC(N)=O)C(=O)N[C@@H](CCC(N)=O)C(=O)N[C@@H](CC(=O)O)C(=O)N[C@@H](Cc1ccccc1)C(=O)N[C@H](C(=O)N[C@@H](CC(N)=O)C(=O)N[C@@H](Cc1c[nH]c2ccccc12)C(=O)N[C@@H](CC(C)C)C(=O)N[C@@H](CC(C)C)C(=O)N[C@@H](C)C(=O)N[C@@H](CCC(N)=O)C(=O)N[C@@H](CCCCN)C(N)=O)C(C)C` [AT165, [hGIP(3-30)NH2[H18K]-C16/18+y-aminobuturic acid]] (H-EGTFISDYSIAMDKIK([GABA-Palmitoyl])QQDFVNWLLAQK-NH2; N-terminus assumed), on human GIP receptor [1] (Table 5), the “Fold change from GIP(3-30)NH2 (increase in potency)” value was 2.9 fold.
